From patent US7696231B2, “Oxindole hydrazide modulators of protein tyrosine phosphatases (PTPs)” (Laboratoires Serono SA, priority 2001, dated 2010) come the findings set out here.

The IC50 is the midpoint of a concentration-inhibition curve.

In assay [1] the target is T1, GLEPP-1 (Homo sapiens, UniProt Q16827).
T1 construct: using the catalytic core of a human recombinant PTP, as an enzyme; made in house
T1 sequence (Q16827 938-1195 limits assumed): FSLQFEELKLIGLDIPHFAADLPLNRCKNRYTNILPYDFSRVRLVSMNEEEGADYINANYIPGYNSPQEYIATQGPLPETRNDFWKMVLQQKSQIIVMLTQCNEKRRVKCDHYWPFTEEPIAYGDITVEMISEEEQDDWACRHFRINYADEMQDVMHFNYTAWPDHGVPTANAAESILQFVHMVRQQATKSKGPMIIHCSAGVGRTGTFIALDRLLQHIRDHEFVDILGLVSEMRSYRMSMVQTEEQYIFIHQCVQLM
Briefly: PTP Enzyme Assay (GLEPP-1). In kind it is biochemical. The settings on record: catalytic core of human recombinant PTP, DiFMUP substrate at Km, 30 minutes at room temperature; read-out: inhibition (IC50) with regard to GLEPP-1. The text has this: (§1) The PTP Enzyme Assay aims at determining the extent of inhibition of the examined PTP (e.g. PTP1B, TC-PTP, PTP-β, DEP-1, LAR, SHP-1, SHP-2, GLEPP-1, PTP-κ, PTP-μ, VHR, hVH5) in the presence of a test compound. The inhibition is illustrated by IC50 values which denote the concentration necessary to achieve an inhibition of 50% of the given PTP.
(§2) The cloning and expression of the catalytic domain of PTPs (e.g. PTP1B, TC-PTP, PTP-β, DEP-1, LAR, SHP-1, SHP-2, GLEPP-1, PTP-κ, PTP-μ, VHR, hVH5) maybe performed as described in J. Biol. Chem. 2000, 275(13), pp 9792-9796.
(§3) Assays were performed in a 96 well plate format, using the catalytic core of a human recombinant PTP, as an enzyme and 6,8-DiFluoro-4-MethylUmbelliferyl Phosphate (DiFMUP, Molecular Probes, D-6567) as a substrate at the Km value which was predetermined for each enzyme. Compounds to be tested were dissolved in 100% DMSO at a concentration of 2 mM. […] The reaction ran for 30 minutes at room temperature before reading the fluorescence intensity on a Perkin-Elmer Victor 2 spectrofluorimeter (excitation at 355 nm, emission at 460 nm, for 0.1 s). The percentage of inhibition relative to the fluorescence observed in the presence of solvent (5% DMSO) alone was determined. The IC50 values for inhibition were determined in triplicates on at least 3 separate occasions.

Assay [2] has as its system db/db mice. Briefly: In vivo assay in db/db mice, fed animals (repeated oral administration). Conditions: 5×50 mg/kg per os once daily during 5 days, blood glucose before and 16 hrs after the last drug administration. Here is the method: (§4) The following assay aims at determining the anti-diabetic effect of the test compounds of formula (I), in vivo in db/db mice using either fasted (to determine the postprandial glycemia right after a predetermined diet), or fed animals, to determine glycemia after a predetermined period of treatment.
(§5) 2 groups of db/db mice, 6 animals each, were formed, in the first one mice were fasted during 20 hours, the second one comprises fed (ad libitum) mice.
Group 2: The fed animals (6) were administered (per os) a dose of 5×50 mg/kg of the test compound according to formula (I).
Mice were orally treated once daily during 5 days with compounds of formula (I). Blood glucose was determined before drug administration and 16 hrs after the last drug administration.

The test system of assay [3] is db/db mice. Description: In vivo assay in db/db mice, fasted animals (postprandial glycemia). The settings on record: db/db mice fasted 20 hours, 100 mg/kg per os, blood glucose before and 4 hrs after drug administration. Here is the method:
as §4, §5
Group 1: The fasted animals (6) were administered (per os) a dose of 100 mg/kg of the test compound according to formula (I).
After oral administration with compounds of formula (I), they had access to commercial food (ad libitum). Blood glucose (postprandial glycemia) was determined before and 4 hrs after drug administration.

The target of assay [4] is T2, PTP1B (Homo sapiens, UniProt P18031).
T2 construct: using the catalytic core of a human recombinant PTP, as an enzyme; made in house
T2 sequence (P18031 3-277 limits assumed): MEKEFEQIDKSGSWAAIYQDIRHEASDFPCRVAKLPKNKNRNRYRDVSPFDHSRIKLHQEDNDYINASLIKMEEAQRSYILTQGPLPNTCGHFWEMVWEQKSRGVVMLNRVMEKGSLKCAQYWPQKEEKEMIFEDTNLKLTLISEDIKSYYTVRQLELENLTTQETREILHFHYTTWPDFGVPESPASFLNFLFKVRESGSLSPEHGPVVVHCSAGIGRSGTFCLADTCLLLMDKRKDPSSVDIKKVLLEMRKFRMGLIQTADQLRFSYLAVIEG
Briefly: PTP Enzyme Assay (PTP1B). In kind it is biochemical. Conditions: catalytic core of human recombinant PTP, DiFMUP substrate at Km, 30 minutes at room temperature; read-out: inhibition (IC50) with regard to PTP1B.
From the text: as §1, §2, §3

As to `O=C(CCc1ccccc1)Nc1ccc(C(=O)NN=C2C(=O)Nc3ccc(I)cc32)cc1` [Example 1, N-(4-{[2-(5-Iodo-2-oxo-1,2-dihydro-3H-indol-3-ylidene)hydrazino]carbonyl}phenyl)-3-phenylpropanamide], the IC50 in assay [1] is roughly 496 nM; in assay [4], 340 nM. For the same molecule, the “reduction of the blood glucose level” value in assay [2] was 22%. The “reduction of blood glucose level induced by food intake (postprandial glycemia)” value (from here on “reduction of blood glucose level induced”) in assay [3] stood at 30%.
Turning to `O=C(COc1ccc([N+](=O)[O-])cc1)NN=C1C(=O)Nc2ccc(I)cc21` [Example 18, N′-(5-Iodo-2-oxo-1,2 dihydro-3H-indol-3-ylidene)-2-(4-nitrophenoxy)acetohydrazide], the “reduction of blood glucose level induced” value in assay [3] was found to be 34%.
For the molecule `COC(=O)c1ccc(OCC(=O)NN=C2C(=O)Nc3ccc(I)cc32)cc1` [Example 23, Methyl 4-{2-[2-(5-iodo-2-oxo-1,2-dihydro-3H-indol-3-ylidene)hydrazino]-2-oxoethoxy}benzoate], the “reduction of the blood glucose level” value in assay [2] is reported as 30%.
Same read-out and setting: to `O=C1Nc2ccc(I)cc2C1=NNC(=O)c1cccc(Oc2ccccc2)c1` [Example 26, N′-(5-Iodo-2-oxo-1,2-dihydro-3H-indol-3-ylidene)-3-phenoxybenzohydrazide] belongs 17%.
`O=C1Nc2ccc(I)cc2C1=NNC(=O)c1ccc(NC(=O)c2ccccc2)cc1` [Example 50, N-(4-{[2-(5-Iodo-2-oxo-1,2-dihydro-3H-indol-3-ylidene)hydrazino]-carbonyl}phenyl)benzamide]: the “reduction of blood glucose level induced” value in assay [3] is 30%.
Turning to `O=C(CCc1cccc(O)c1)Nc1ccc(C(=O)NN=C2C(=O)Nc3ccc(I)cc32)cc1` [Example 70, 3-(3-Hydroxyphenyl)-N-(4-{[2-(5-iodo-2-oxo-1,2-dihydro-3H-indol-3-ylidene)hydrazino]carbonyl}phenyl)propanamide], in assay [4], the IC50 turned out to be 770 nM.
